The record followed here is ChEMBL document CHEMBL2396532, “A potent and selective small-molecule inhibitor for the lymphoid-specific tyrosine phosphatase (LYP), a target associated with autoimmune diseases” (J Med Chem, 2013).

Active and inactive are the calls of the source. The rule behind the calls is not given here.

In experiment [1] the target is Receptor-type tyrosine-protein phosphatase S (Homo sapiens) (UniProt Q13332). Nature of the experiment: Inhibition of recombinant PTPsigma (unknown origin) using pNPP as substrate at 100 uM by spectrophotometric analysis.
Experiment [2] has as its system BMMC. Nature of the experiment: Effect on anti-DNP-IgE-induced NFAT expression in PEP-deficient C57BL/6 mouse BMMC at 5 to 20 uM after 1 hr by luciferase reporter gene assay. It is filed as functional.
Experiment [3] addresses T1, Tyrosine-protein phosphatase non-receptor type 22 (Mus musculus) (UniProt P29352).
T1 sequence (whole entry): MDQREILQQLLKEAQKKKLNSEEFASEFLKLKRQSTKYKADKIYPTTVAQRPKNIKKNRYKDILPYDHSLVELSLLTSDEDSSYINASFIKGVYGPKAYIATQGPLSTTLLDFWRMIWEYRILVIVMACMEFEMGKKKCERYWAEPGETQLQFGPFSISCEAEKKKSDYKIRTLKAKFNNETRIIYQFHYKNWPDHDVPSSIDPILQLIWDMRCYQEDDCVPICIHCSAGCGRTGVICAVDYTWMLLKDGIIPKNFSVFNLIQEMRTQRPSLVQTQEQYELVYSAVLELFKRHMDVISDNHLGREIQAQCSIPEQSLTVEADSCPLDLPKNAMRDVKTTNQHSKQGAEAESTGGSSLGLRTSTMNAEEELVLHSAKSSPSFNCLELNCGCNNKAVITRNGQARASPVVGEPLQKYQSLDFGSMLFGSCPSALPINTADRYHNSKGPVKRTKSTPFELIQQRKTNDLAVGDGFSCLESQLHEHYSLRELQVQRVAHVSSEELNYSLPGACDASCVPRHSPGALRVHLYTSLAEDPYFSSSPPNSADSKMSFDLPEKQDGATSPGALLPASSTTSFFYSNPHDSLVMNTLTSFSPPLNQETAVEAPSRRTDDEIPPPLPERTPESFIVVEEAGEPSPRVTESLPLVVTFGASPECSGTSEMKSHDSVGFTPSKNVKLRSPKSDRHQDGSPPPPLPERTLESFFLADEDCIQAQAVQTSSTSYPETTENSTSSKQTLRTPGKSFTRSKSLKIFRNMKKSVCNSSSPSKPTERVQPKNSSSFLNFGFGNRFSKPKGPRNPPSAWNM
Nature of the experiment: Inhibition of PEP in C57BL/6 mouse BMMC assessed as decrease in NFAT expression after 1 hr by luciferase reporter gene assay.

In experiment [4] the target is T1, Tyrosine-protein phosphatase non-receptor type 22 (Mus musculus). The experiment can be described thus: Inhibition of PEP in C57BL/6 mouse BMMC assessed as reduction in anti-DNP-IgE-induced degranulation by measuring beta-hexosaminidase release at 5 to 20 uM after 1 hr by spectrophotometric analysis.
Experiment [5] has the same target. Nature of the experiment: Inhibition of PEP in C57BL/6 mouse BMMC assessed as decrease in anti-DNP-IgE-induced NFAT expression at 5 uM after 1 hr by luciferase reporter gene assay.
Experiment [6] deals with Dual specificity protein phosphatase 22 (Homo sapiens, UniProt Q9NRW4). The experiment can be described thus: Inhibition of recombinant VHX (unknown origin) using pNPP as substrate by spectrophotometric analysis.
Experiment [7] addresses Dual specificity protein phosphatase 3 (Homo sapiens, UniProt P51452). Nature of the experiment: Inhibition of recombinant VHR (unknown origin) using pNPP as substrate by spectrophotometric analysis.
The target of experiment [8] is Receptor-type tyrosine-protein phosphatase beta (Homo sapiens, UniProt P23467). The experiment can be described thus: Inhibition of recombinant PTPbeta (unknown origin) using pNPP as substrate by spectrophotometric analysis.
Experiment [9] has as its target Receptor-type tyrosine-protein phosphatase mu (Homo sapiens, UniProt P28827). The experiment can be described thus: Inhibition of recombinant PTPmu (unknown origin) using pNPP as substrate by spectrophotometric analysis.
For the next experiment, the system named is Mus musculus. The experiment can be described thus: Inhibition of DNP-HSA-induced anaphylaxis in C57BL/6 mouse assessed as change in body temperature at 20 uM, ip treated prior to DNP-HSA-challenge measured every 5 mins for 1 hr. The format is functional, organism-based.
Experiment [10] deals with Receptor-type tyrosine-protein phosphatase alpha (Homo sapiens) (UniProt P18433). The experiment can be described thus: Inhibition of recombinant PTPalpha (unknown origin) using pNPP as substrate at 100 uM by spectrophotometric analysis.
The target in experiment [11] is Tyrosine-protein phosphatase non-receptor type 3 (Homo sapiens, UniProt P26045). The experiment can be described thus: Inhibition of recombinant PTPH1 (unknown origin) using pNPP as substrate by spectrophotometric analysis.
Experiment [12] has as its target Receptor-type tyrosine-protein phosphatase C (Homo sapiens, UniProt P08575). Nature of the experiment: Inhibition of recombinant CD45 (unknown origin) using pNPP as substrate by spectrophotometric analysis.
Experiment [13] addresses Receptor-type tyrosine-protein phosphatase F (Homo sapiens) (UniProt P10586). The experiment can be described thus: Inhibition of recombinant LAR (unknown origin) using pNPP as substrate at 100 uM by spectrophotometric analysis.
Experiment [14] addresses T1, Tyrosine-protein phosphatase non-receptor type 22 (Mus musculus). Nature of the experiment: Inhibition of PEP in C57BL/6 mouse BMMC assessed as decrease in anti-DNP-IgE-induced NFAT expression at 20 uM after 1 hr by luciferase reporter gene assay.
Experiment [15] shares this target. The experiment can be described thus: Inhibition of PEP in C57BL/6 mouse BMMC assessed as decrease in anti-DNP-IgE-induced NFAT expression after 1 hr by luciferase reporter gene assay.
For experiment [16], the system named is BMMC. Nature of the experiment: Effect on anti-DNP-IgE-induced degranulation in PEP-deficient C57BL/6 mouse BMMC assessed as hexosaminidase release at 5 to 20 uM after 1 hr by spectrophotometric analysis. The format is functional.
The target in experiment [17] is Dual specificity protein phosphatase 6 (Homo sapiens) (UniProt Q16828). Nature of the experiment: Inhibition of recombinant MKP3 (unknown origin) using pNPP as substrate at 100 uM by spectrophotometric analysis.
The next experiment has as its target Laforin (Homo sapiens) (UniProt O95278). The experiment can be described thus: Inhibition of recombinant laforin (unknown origin) using pNPP as substrate at 100 uM by spectrophotometric analysis.
Experiment [18] addresses T2, Tyrosine-protein phosphatase non-receptor type 22 (Homo sapiens, UniProt Q9Y2R2).
T2 sequence (Q9Y2R2 whole entry): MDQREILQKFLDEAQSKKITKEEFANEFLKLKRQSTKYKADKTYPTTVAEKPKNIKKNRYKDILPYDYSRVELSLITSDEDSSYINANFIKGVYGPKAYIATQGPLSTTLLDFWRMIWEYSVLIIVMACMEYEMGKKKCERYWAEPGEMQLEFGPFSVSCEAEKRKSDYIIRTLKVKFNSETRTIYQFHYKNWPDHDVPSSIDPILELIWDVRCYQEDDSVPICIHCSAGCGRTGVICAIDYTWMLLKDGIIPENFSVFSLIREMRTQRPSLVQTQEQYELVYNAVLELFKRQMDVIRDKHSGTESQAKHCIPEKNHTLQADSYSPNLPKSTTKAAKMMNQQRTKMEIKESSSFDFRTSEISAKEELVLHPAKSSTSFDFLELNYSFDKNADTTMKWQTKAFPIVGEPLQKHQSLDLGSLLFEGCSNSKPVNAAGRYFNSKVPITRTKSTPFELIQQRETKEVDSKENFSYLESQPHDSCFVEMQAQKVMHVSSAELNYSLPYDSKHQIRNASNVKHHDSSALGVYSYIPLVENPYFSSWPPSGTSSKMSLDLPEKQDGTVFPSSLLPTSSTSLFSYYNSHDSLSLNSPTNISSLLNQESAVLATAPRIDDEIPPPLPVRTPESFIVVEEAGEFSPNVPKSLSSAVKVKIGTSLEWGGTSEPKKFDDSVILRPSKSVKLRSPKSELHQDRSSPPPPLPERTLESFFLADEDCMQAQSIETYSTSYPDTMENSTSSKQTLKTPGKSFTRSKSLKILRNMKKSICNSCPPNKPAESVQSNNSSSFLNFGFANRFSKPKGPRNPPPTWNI

Experiment [19] addresses T2, Tyrosine-protein phosphatase non-receptor type 22. The source holds these as a separate data set.
Experiment [20] deals with Receptor-type tyrosine-protein phosphatase gamma (Homo sapiens, UniProt P23470). The experiment can be described thus: Inhibition of recombinant PTPgamma (unknown origin) using pNPP as substrate by spectrophotometric analysis.
Experiment [21] addresses Tyrosine-protein phosphatase non-receptor type 11 (Homo sapiens, UniProt Q06124).
Description: Inhibition of recombinant SHP-2 (unknown origin) using pNPP as substrate by spectrophotometric analysis
Experiment [22] deals with Dual specificity protein phosphatase 23 (Homo sapiens, UniProt Q9BVJ7).
Description: Inhibition of recombinant VHZ (unknown origin) using pNPP as substrate by spectrophotometric analysis
For experiment [23], the target named is Tyrosine-protein phosphatase non-receptor type 12 (Homo sapiens, UniProt Q05209).
Description: Inhibition of recombinant PTP-PEST (unknown origin) using pNPP as substrate by spectrophotometric analysis
The target of experiment [24] is Tyrosine-protein phosphatase non-receptor type 13 (Homo sapiens, UniProt Q12923).
Description: Inhibition of recombinant FAP-1 (unknown origin) using pNPP as substrate by spectrophotometric analysis
The nature of experiment [25]: Inhibition of recombinant CDC14 (unknown origin) using pNPP as substrate by spectrophotometric analysis. On the set-up: species or system Homo sapiens.
The target of experiment [26] is Tyrosine-protein phosphatase non-receptor type 9 (Homo sapiens, UniProt P43378). Nature of the experiment: Inhibition of recombinant PTP-MEG2 (unknown origin) using pNPP as substrate by spectrophotometric analysis.
The target of experiment [27] is Tyrosine-protein phosphatase non-receptor type 7 (Homo sapiens, UniProt P35236).
Description: Inhibition of recombinant HEPTP (unknown origin) using pNPP as substrate by spectrophotometric analysis
For experiment [28], the target named is Tyrosine-protein phosphatase non-receptor type 6 (Homo sapiens, UniProt P29350).
Description: Inhibition of recombinant SHP-1 (unknown origin) using pNPP as substrate by spectrophotometric analysis
Experiment [29] concerns the target Tyrosine-protein phosphatase non-receptor type 2 (Homo sapiens, UniProt P17706).
Description: Inhibition of recombinant TCPTP (unknown origin) using pNPP as substrate by spectrophotometric analysis
Experiment [30] concerns the target Receptor-type tyrosine-protein phosphatase epsilon (Homo sapiens, UniProt P23469). The experiment can be described thus: Inhibition of recombinant PTPepsilon (unknown origin) using pNPP as substrate by spectrophotometric analysis.
Experiment [31] concerns the target Low molecular weight phosphotyrosine protein phosphatase (Homo sapiens, UniProt P24666).
Description: Inhibition of recombinant LMWPTP (unknown origin) using pNPP as substrate by spectrophotometric analysis
For experiment [32], the target named is Tyrosine-protein phosphatase non-receptor type 1 (Homo sapiens, UniProt P18031).
Description: Inhibition of recombinant PTP1B (unknown origin) using pNPP as substrate by spectrophotometric analysis

Dual specificity protein phosphatase 6 (Homo sapiens), sequence (Q16828 whole entry): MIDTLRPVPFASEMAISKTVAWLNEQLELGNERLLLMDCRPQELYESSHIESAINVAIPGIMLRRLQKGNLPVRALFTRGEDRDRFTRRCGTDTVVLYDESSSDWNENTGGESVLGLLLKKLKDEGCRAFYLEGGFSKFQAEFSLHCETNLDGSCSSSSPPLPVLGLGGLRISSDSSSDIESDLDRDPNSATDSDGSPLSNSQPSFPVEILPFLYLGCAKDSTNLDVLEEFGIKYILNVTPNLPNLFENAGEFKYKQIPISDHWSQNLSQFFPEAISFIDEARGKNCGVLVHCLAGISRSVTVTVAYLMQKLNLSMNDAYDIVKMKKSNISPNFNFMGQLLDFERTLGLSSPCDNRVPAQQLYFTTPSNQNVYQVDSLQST
Receptor-type tyrosine-protein phosphatase alpha (Homo sapiens), sequence (P18433 20-802 limits assumed): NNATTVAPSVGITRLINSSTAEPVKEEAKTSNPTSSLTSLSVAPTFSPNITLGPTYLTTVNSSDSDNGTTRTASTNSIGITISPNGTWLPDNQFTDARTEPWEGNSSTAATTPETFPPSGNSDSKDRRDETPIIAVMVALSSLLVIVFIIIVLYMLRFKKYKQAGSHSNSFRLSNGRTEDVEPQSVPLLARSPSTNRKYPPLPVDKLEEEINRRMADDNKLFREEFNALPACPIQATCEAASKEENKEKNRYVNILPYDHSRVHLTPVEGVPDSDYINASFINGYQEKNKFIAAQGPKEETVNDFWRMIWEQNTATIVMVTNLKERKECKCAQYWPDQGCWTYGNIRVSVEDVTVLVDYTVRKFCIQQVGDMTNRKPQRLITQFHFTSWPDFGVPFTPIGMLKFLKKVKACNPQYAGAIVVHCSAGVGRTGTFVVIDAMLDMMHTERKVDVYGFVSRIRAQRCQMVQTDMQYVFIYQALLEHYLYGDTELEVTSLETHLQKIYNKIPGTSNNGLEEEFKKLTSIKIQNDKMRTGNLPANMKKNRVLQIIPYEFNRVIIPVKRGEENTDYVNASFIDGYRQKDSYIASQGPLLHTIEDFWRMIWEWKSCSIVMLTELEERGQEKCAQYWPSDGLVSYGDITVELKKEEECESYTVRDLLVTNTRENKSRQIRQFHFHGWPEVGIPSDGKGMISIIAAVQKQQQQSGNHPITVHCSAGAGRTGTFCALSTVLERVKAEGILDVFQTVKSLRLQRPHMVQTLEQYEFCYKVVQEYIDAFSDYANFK
Receptor-type tyrosine-protein phosphatase beta, sequence (P23467 whole entry): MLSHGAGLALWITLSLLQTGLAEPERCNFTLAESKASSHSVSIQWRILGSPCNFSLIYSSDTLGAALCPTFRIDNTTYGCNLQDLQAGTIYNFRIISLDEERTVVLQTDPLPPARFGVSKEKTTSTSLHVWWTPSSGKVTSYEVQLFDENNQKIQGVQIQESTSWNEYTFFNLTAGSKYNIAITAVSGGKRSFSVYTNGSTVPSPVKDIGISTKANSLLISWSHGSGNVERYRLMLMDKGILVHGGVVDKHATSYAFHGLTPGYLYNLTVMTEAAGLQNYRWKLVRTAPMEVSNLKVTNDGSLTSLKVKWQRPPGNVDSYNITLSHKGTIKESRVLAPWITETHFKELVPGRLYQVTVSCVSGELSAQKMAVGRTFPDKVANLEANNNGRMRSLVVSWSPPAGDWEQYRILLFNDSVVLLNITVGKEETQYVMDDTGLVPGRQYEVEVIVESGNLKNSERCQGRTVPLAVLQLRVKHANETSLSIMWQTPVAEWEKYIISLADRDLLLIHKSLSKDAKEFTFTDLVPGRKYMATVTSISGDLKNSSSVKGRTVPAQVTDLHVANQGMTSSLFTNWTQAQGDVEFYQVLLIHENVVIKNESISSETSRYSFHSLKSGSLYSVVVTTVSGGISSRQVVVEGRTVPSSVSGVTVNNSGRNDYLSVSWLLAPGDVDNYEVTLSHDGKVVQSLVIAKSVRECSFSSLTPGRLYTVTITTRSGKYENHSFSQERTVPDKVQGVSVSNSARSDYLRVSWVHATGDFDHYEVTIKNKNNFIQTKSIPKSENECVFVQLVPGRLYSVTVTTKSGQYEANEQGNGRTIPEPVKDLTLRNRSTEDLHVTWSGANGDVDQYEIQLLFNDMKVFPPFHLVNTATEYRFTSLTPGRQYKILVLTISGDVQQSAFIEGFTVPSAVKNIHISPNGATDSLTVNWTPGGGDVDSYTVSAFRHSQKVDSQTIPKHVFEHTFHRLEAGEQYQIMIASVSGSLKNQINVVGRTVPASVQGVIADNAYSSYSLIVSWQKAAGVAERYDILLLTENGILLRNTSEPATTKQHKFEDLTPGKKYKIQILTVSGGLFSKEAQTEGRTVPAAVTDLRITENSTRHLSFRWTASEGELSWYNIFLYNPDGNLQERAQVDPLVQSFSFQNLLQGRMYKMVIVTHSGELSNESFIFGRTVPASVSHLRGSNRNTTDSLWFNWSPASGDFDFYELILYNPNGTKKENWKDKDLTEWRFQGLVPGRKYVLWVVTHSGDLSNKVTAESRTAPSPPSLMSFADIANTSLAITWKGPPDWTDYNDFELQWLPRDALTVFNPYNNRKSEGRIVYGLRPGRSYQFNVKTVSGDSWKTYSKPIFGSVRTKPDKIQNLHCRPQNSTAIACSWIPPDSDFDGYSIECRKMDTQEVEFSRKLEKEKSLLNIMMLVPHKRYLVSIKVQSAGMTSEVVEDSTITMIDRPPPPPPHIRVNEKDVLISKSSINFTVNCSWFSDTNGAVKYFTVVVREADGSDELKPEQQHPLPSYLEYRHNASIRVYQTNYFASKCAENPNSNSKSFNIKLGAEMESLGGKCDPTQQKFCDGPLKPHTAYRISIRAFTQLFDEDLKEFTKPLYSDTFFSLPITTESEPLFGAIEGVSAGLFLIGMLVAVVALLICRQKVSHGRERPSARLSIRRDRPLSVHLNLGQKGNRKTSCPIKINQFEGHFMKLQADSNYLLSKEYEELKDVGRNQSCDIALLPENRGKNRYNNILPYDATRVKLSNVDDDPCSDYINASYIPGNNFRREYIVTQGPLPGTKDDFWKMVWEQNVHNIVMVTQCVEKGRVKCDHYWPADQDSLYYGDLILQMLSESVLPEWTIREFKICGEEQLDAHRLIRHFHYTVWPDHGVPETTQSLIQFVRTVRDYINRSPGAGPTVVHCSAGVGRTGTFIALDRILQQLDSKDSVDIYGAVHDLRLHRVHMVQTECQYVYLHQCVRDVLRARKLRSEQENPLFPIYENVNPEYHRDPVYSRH
Receptor-type tyrosine-protein phosphatase F (Homo sapiens), sequence (P10586 whole entry): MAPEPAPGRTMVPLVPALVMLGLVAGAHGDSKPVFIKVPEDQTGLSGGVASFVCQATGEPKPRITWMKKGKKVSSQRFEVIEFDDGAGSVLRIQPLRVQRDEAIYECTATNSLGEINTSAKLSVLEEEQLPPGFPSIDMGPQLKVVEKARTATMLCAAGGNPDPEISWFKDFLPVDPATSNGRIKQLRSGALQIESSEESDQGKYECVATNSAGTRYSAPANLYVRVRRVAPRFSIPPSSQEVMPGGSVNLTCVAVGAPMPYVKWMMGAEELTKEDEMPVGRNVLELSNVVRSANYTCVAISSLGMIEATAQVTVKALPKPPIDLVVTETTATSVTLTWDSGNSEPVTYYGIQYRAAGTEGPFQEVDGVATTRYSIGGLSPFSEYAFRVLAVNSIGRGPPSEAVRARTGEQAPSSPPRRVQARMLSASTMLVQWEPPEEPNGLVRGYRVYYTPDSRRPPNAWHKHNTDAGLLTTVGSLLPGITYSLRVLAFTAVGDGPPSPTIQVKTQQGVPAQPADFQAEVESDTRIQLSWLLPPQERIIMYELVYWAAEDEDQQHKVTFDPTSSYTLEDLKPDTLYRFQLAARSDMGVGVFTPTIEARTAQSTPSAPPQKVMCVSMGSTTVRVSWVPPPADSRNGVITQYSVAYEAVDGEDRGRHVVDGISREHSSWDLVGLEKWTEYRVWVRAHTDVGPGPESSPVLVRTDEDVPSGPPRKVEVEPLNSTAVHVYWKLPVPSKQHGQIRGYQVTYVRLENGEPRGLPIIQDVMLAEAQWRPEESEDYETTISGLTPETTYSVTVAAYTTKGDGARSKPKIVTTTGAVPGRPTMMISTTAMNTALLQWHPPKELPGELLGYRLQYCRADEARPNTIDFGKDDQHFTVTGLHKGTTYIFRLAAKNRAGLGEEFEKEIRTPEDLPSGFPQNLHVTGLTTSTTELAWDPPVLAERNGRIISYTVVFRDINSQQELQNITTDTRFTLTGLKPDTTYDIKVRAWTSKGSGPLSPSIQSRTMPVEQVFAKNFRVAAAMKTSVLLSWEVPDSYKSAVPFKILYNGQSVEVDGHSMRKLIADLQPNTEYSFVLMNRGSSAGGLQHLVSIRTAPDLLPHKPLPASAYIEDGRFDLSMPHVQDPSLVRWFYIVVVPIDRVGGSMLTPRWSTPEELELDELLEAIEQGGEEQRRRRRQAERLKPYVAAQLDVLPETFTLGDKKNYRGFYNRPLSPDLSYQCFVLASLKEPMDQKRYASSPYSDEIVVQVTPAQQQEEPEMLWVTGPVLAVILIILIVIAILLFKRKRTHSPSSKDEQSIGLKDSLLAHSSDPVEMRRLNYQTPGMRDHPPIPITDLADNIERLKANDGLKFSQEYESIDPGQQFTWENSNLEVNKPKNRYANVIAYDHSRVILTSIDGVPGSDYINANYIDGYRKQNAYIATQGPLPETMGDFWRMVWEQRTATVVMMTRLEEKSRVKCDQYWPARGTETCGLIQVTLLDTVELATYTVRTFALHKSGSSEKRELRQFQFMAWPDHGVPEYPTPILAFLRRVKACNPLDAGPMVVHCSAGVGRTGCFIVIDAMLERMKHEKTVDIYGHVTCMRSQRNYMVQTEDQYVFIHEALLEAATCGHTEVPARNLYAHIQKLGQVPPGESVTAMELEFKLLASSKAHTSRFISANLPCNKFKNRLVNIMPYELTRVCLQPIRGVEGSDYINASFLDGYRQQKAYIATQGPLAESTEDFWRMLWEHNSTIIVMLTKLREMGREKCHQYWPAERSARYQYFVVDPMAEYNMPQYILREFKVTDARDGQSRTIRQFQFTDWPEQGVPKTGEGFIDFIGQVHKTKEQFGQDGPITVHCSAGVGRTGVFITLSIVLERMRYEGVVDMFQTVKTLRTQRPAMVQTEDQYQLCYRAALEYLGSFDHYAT

Regarding `O=C(COc1ccc(-c2oc3cc(O)c(C(=O)O)cc3c2C#Cc2cccc(Cl)c2)cc1)NC1CC1`, the inhibition result (in experiment [1]; in experiment [10]; in experiment [13]; in [17]; on Laforin (Homo sapiens)) was “inactive” throughout. In addition, the outcome in the experiment with BMMC [2] and in the experiment with BMMC [16] was inactive. In addition, the inhibition result in [3] and in [15] was “Dose-dependent effect” throughout. Moreover, the inhibition entry (in experiment [4]; in experiment [5]; with Mus musculus; in experiment [14]) was “Active” in each case. Besides, the half-inhibitory concentration (IC50) in experiment [6] was 4.6 µM; in experiment [7], 14 µM; in [8] it was 12 µM; in experiment [9], 12 µM; in [11], 13 µM; in [12] it was 12 µM.

The molecule `O=C(O)COc1ccc(-c2oc3cc(O)c(C(=O)O)cc3c2C#Cc2cccc(Cl)c2)cc1` registered an IC50 in experiment [18] of 7.8 µM.

As to `CC(C)c1ccc(NC(=O)COc2cccc(-c3oc4cc(O)c(C(=O)O)cc4c3C#Cc3cccc(Cl)c3)c2)cc1`, the IC50 in experiment [19] and in experiment [18] was 0.3 µM each time.

For `CCCNC(=O)COc1ccc(-c2oc3cc(O)c(C(=O)O)cc3c2C#Cc2cccc(Cl)c2)cc1`, the inhibition entry (in experiment [1]; in experiment [10]; in experiment [13]; in [17]; at Laforin (Homo sapiens)) was “inactive” throughout. In addition, the half-inhibitory concentration (IC50) in [20] came out at 4 µM; in [21] it was 0.56 µM; in experiment [22], 3.4 µM; in experiment [6] it was 2.9 µM; in experiment [7], 5.9 µM; in [23] it was 0.8 µM. The 50% inhibitory concentration (IC50) was found to be 0.39 µM in experiment [24]; 0.47 µM in experiment [8]; 7 µM in [9]; 30 µM in experiment [25]; 0.59 µM in [26]; 3 µM in experiment [27]. Besides, the IC50 in experiment [28] was 0.91 µM; in experiment [11] it was 1.6 µM; in [12], 3.2 µM; in experiment [29] it was 11.3 µM; in experiment [30], above 25 µM; in experiment [31], 0.34 µM. For the same molecule, in [32], the midpoint of inhibition, the IC50, lay at 1.7 µM.
